Measured values: ChEMBL document CHEMBL2331446, “Discovery of a potential anti-inflammatory agent: 3-oxo-29-noroleana-1,9(11),12-trien-2,20-dicarbonitrile” (J Med Chem, 2013)
Active and inactive are the calls of the source. The rule behind the calls is not given here.

Tests used:
[1] = tested on: RAW264.7; assay: Cytotoxicity against mouse RAW264.7 cells at 80 uM after 24 hrs by MTT assay; type: cell-based; conditions: raw264.7, 24 h
[2] = tested on: RAW264.7; assay: Antiinflammatory activity in mouse RAW264.7 cells assessed as inhibition of LPS-induced NO production incubated for 2 hrs prior to LPS-challenge measured after 24 hrs by Griess method; type: functional, cell-based
[3] = tested on: RAW264.7; assay: Antiinflammatory activity in mouse RAW264.7 cells assessed as inhibition of LPS-induced NO production at 50 uM incubated for 2 hrs prior to LPS-challenge measured after 24 hrs by Griess method; type: functional
[4] = tested on: RAW264.7; assay: Cytotoxicity against mouse LPS-challenged RAW264.7 cells at 80 uM after 24 hrs by MTT assay; type: cell-based; conditions: raw264.7, 24 h
[5] = tested on: Mus musculus; assay: Antiinflammatory activity in ICR mouse assessed as protection against LPS-induced sepsis at 20 mg/kg, ip administered for 5 days prior to LPS-challenge measured after 2 hrs; type: functional, organism-based; design: dose 20 mg/kg
[6] = tested on: Mus musculus; assay: Antiinflammatory activity in ICR mouse assessed as reversal in LPS-induced weight loss at 20 mg/kg, ip administered for 5 days prior to LPS-challenge measured from day 9 to 11 relative to control; type: functional, organism-based; design: dose 20 mg/kg
[7] = tested on: Mus musculus; assay: Antiinflammatory activity in ICR mouse assessed as reversal in LPS-induced weight loss at 20 mg/kg, ip administered for 5 days prior to LPS-challenge measured up to day 8 relative to control; type: functional, organism-based; design: dose 20 mg/kg
[8] = molecular target: T1, NF-kappa-B inhibitor alpha (Mus musculus) (UniProt Q9Z1E3); assay: Inhibition of IkappaB phosphorylation in mouse RAW264.7 cells assessed as decrease in LPS-induced phospho-IkappaBalpha level at 75 uM incubated for 2 hrs prior to LPS-challenge measured after 30 mins by Western blot analysis; type: cell-based
T1 sequence (whole entry): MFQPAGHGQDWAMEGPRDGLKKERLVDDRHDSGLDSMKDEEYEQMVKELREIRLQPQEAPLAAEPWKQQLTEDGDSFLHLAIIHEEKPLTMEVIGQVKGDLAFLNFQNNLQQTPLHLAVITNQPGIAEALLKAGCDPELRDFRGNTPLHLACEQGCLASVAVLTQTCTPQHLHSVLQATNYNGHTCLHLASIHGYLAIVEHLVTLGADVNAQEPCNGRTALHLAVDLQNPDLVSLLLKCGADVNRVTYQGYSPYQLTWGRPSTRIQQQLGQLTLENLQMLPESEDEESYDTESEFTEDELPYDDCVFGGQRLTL

[9] = tested on: RAW264.7; assay: Antiinflammatory activity in mouse RAW264.7 cells assessed as inhibition of LPS-stimulated IL-6 mRNA expression at 75 uM incubated for 2 hrs prior to LPS-challenge measured after 8 hrs by quantitative real time PCR analysis; type: functional, cell-based
[10] = molecular target: T1, NF-kappa-B inhibitor alpha (Mus musculus); assay: Inhibition of IkappaBalpha degradation in mouse LPS-induced RAW264.7 cells assessed as increase in cytosolic IkappaB level at 75 uM incubated for 2 hrs prior to LPS-challenge measured after 30 mins by Western blot analysis; type: cell-based
[11] = tested on: Mus musculus; assay: Antiinflammatory activity in ICR mouse assessed as protection against LPS-induced sepsis at 50 mg/kg, ip administered for 5 days prior to LPS-challenge measured after 2 hrs; type: functional, organism-based; design: dose 50 mg/kg
[12] = tested on: RAW264.7; assay: Antiinflammatory activity in mouse RAW264.7 cells assessed as inhibition of LPS-stimulated IL-1beta mRNA expression at 75 uM incubated for 2 hrs prior to LPS-challenge measured after 8 hrs by quantitative real time PCR analysis; type: functional, cell-based
[13] = tested on: RAW264.7; assay: Inhibition of JNK phosphorylation in mouse LPS-induced RAW264.7 cells at 75 uM incubated for 2 hrs prior to LPS-challenge measured after 30 mins by Western blot analysis; type: cell-based
[14] = tested on: RAW264.7; assay: Antiinflammatory activity in mouse RAW264.7 cells assessed as inhibition of LPS-stimulated TNF-alpha mRNA expression at 75 uM incubated for 2 hrs prior to LPS-challenge measured after 8 hrs by quantitative real time PCR analysis; type: functional, cell-based
[15] = tested on: RAW264.7; assay: Antiinflammatory activity in mouse RAW264.7 cells assessed as inhibition of LPS-induced iNOS protein expression at 75 uM incubated for 2 hrs prior to LPS-challenge measured after 24 hrs by Western blot analysis; type: functional, cell-based
[16] = tested on: RAW264.7; assay: Inhibition of ERK phosphorylation in mouse LPS-induced RAW264.7 cells at 75 uM incubated for 2 hrs prior to LPS-challenge measured after 30 mins by Western blot analysis; type: cell-based
[17] = molecular target: MAP kinase p38 (Mus musculus) (UniProt P47811+O08911+Q9WUI1+Q9Z1B7); assay: Inhibition of MAPK p38 in mouse LPS-induced RAW264.7 cells at 75 uM incubated for 2 hrs prior to LPS-challenge measured after 30 mins by Western blot analysis; type: cell-based
[18] = molecular target: T1, NF-kappa-B inhibitor alpha (Mus musculus); assay: Inhibition of IkappaBalpha in mouse RAW264.7 cells assessed as inhibition of LPS-stimulated NF-kappaB p65 subunit accumulation in nucleus at 75 uM incubated for 2 hrs prior to LPS-challenge measured after 30 mins by Western blot analysis; type: cell-based

SMILES | Activity [1] | IC50 [2] [µM] | inhibition at 50 µM [3] [%] | Activity [4] | other results
COC(=O)[C@@]1(C)CC[C@]2(C)CC[C@]3(C)C(=CC=C4[C@@]5(C)C=C(O)C(=O)C(C)(C)[C@@H]5CC[C@]43C)[C@@H]2C1 | Non-toxic | 38.6 | 33.3 | Non-toxic | 
CC1(C)C(=O)C(I)=C[C@]2(C)C3=CC=C4[C@@H]5C[C@@](C)(C#N)CC[C@]5(C)CC[C@@]4(C)[C@]3(C)CC[C@@H]12 | Non-toxic | 25.1 | 52.9 | Non-toxic | 
C[C@@H]1C[C@H]2[C@@H]3CCC4=CC(=O)C=C[C@]4(C)[C@@]3(F)[C@@H](O)C[C@]2(C)[C@@]1(O)C(=O)CO [DEXAMETHASONE] |  | 1.43 | 98.2 |  | Activity [5]: Active; Activity [6]: Active; Activity [7]: inactive
COC(=O)[C@@]1(C)CC[C@]2(C)CC[C@]3(C)C(=CC=C4[C@@]5(C)C=C(I)C(=O)C(C)(C)[C@@H]5CC[C@]43C)[C@@H]2C1 | Non-toxic | > 50 | 15.3 | Non-toxic | 
CC1(C)C(=O)C(I)=C[C@]2(C)C3=CC=C4[C@@H]5C[C@@](C)(C(=O)O)CC[C@]5(C)CC[C@@]4(C)[C@]3(C)CC[C@@H]12 | Non-toxic | 20.1 | 60.3 | Non-toxic | 
COC(=O)[C@@]1(C)CC[C@]2(C)CC[C@]3(C)C(=CC=C4[C@@]5(C)C=C(C#N)C(=O)C(C)(C)[C@@H]5CC[C@]43C)[C@@H]2C1 | Non-toxic | 20 | 67.3 | Non-toxic | 
CNC(=O)[C@@]1(C)CC[C@]2(C)CC[C@]3(C)C(=CC=C4[C@@]5(C)C=C(O)C(=O)C(C)(C)[C@@H]5CC[C@]43C)[C@@H]2C1 | Non-toxic | > 50 | 27.6 | Non-toxic | 
CC1(C)C(=O)CC[C@]2(C)C3=CC=C4[C@@H]5C[C@@](C)(C(=O)O)CC[C@]5(C)CC[C@@]4(C)[C@]3(C)CC[C@@H]12 | Non-toxic | > 50 | 7.36 | Non-toxic | 
CC1(C)C(=O)C=C[C@]2(C)C3=CC=C4[C@@H]5C[C@@](C)(C#N)CC[C@]5(C)CC[C@@]4(C)[C@]3(C)CC[C@@H]12 | Non-toxic | 28.5 | 50.2 | Non-toxic | 
CC1(C)C(=O)C(O)=C[C@]2(C)C3=CC=C4[C@@H]5C[C@@](C)(C(=O)O)CC[C@]5(C)CC[C@@]4(C)[C@]3(C)CC[C@@H]12 | Non-toxic | 32.8 | 42.1 | Non-toxic | 
CC1(C)C(=O)C(O)=C[C@]2(C)C3=CC=C4[C@@H]5C[C@@](C)(C(=O)n6ccnc6)CC[C@]5(C)CC[C@@]4(C)[C@]3(C)CC[C@@H]12 | Non-toxic | 6.22 | 99 | Non-toxic | 
CC1(C)C(=O)C=C[C@]2(C)C3=CC=C4[C@@H]5C[C@@](C)(C(=O)O)CC[C@]5(C)CC[C@@]4(C)[C@]3(C)CC[C@@H]12 | Non-toxic | > 50 | 25.1 | Non-toxic | 
CC1(C)[C@@H](O)CC[C@]2(C)C3=CC=C4[C@@H]5C[C@@](C)(C(=O)O)CC[C@]5(C)CC[C@@]4(C)[C@]3(C)CC[C@@H]12 | Non-toxic | > 50 | 15.6 | Non-toxic | 
CC1(C)C(=O)C=C[C@]2(C)C3=CC=C4[C@@H]5C[C@@](C)(C(N)=O)CC[C@]5(C)CC[C@@]4(C)[C@]3(C)CC[C@@H]12 | Non-toxic | 40.1 | 32.5 | Non-toxic | 
COC(=O)[C@@]1(C)CC[C@]2(C)CC[C@]3(C)C(=CC=C4[C@@]5(C)C=CC(=O)C(C)(C)[C@@H]5CC[C@]43C)[C@@H]2C1 | Non-toxic | > 50 | 5.5 | Non-toxic | 
CC1(C)C(=O)C(C#N)=C[C@]2(C)C3=CC=C4[C@@H]5C[C@@](C)(C(=O)O)CC[C@]5(C)CC[C@@]4(C)[C@]3(C)CC[C@@H]12 | Non-toxic | 3.08 | 98.4 | Non-toxic | 
CC1(C)C(=O)C(O)=C[C@]2(C)C3=CC=C4[C@@H]5C[C@@](C)(C(N)=O)CC[C@]5(C)CC[C@@]4(C)[C@]3(C)CC[C@@H]12 | Non-toxic | 35.1 | 37.5 | Non-toxic | 
CC1(C)[C@@H](O)CC[C@]2(C)[C@H]3C(=O)C=C4[C@@H]5C[C@@](C)(C(=O)O)CC[C@]5(C)CC[C@@]4(C)[C@]3(C)CC[C@@H]12 [ENOXOLONE] |  | 188 | 5.12 |  | inhibition [8]: Active; inhibition [9]: Active; inhibition [10]: Active; Activity [11]: Active; inhibition [12]: Active; inhibition [13]: Active; inhibition [14]: Active; inhibition [15]: Active; inhibition [16]: Active; inhibition [17]: Active; inhibition [18]: Active
